In the NIST ThermoML archive (doi:10.1016/j.jct.2011.02.006):

Tests used:
[1] = for viscosity / mass density: 101.33 kPa, Liquid; for viscosity: Falling or rolling sphere viscometry; for mass density: Vibrating tube method
[2] = Molar enthalpy of transition or fusion; details: Crystal; DSC

CCCC[n+]1ccc2ccccc2c1.O=S(=O)([N-]S(=O)(=O)C(F)(F)F)C(F)(F)F [2-butylisoquinolinium bis[(trifluoromethyl)sulfonyl]amide]
[1]
Details | mass density [kg/m3] | viscosity [mPa·s]
323.2 K | 1413.21 | 71.07
328.2 K | 1408.78 | 56.23
333.2 K | 1404.32 | 45.14
338.2 K | 1399.88 | 38.46
343.2 K | 1395.47 | 32.08
348.2 K | 1391.06 | 27.1
353.2 K | 1386.66 | 23.02
358.2 K | 1382.26 | 19.87
363.2 K | 1377.88 | 16.14

[1], DTA
Details | Glass transition temperature [°C] | Normal melting temperature [°C]
Crystal | – | 48
Glass | -55.2 | –

Details | Molar enthalpy of transition or fusion [kcal/mol]
[2] | 11
